Key:
[1] = test system: Human fibrosarcoma cells (HT-1080); test: Infiltration test of fibrosarcoma cells (suppressive effect on metastasis of cancer), transwell with Matrigel; format: cell-based; conditions: 18 hours
Procedure: Human fibrosarcoma cells (HT-1080) were cultured in DMEM containing 10% fetal bovine serum (FBS) and 1% penicillin/streptomycin (PS) under the condition of 37° C. and 5% CO2. When the cells grew to fill 80% or more of the culture flask, they were subcultured at a ratio of 1:3 and used in this test. In order to confirm the suppressive effect of the macrolactin compounds on metastasis of cancer in in vitro experiments, an infiltration test of fibrosarcoma cells was carried out by using a 24-well transwell attached with a polycarbonate filter of […] pore size. Firstly, the bottom side of the filter was coated with Collagen Type I (0.5 mg/ml), and then the upper side of the filter was coated with Matrigel (1.5 mg/ml). After coating, the lower part of the insert was filled with a medium containing 5% FBS, and the upper part was filled with serum-free medium human fibrosarcoma cells (HT-1080) which were incubated for 18 hours in a cell incubator. The human fibrosarcoma cells infiltrated into the bottom side of the filter were fixed with methanol and then dyed with hematoxylin and eosin. The infiltrated cells were observed under a microscope, and 3 parts were randomly selected from each filter to take photographs and determine the number of cells (Kim, M. S. et al., Cancer Res., 63, pp. 5454-5461, 2003; Park, B. C. et al., Eur. J. Pharm., 567, pp. 193-197, 2007).

[2] = test system: chorioallantoic membrane (CAM) neovascular formation induced by VEGF; test: CAM analysis of suppressive effect on angiogenesis, neovascular formation induced by VEGF; format: in vivo, chicken; conditions: VEGF 20 ng/CAM; for suppression of neovascular formation caused by VEGF (number of blood vessel branches): various concentrations of compound, three days after treatment
Procedure: (§1) In order to confirm an anti-angiogenic effect of the macrolactin compounds in in vivo test, chorioallantoic membrane (CAM) analysis was carried out (Nguyen M. et al., Microvascular Res., 47, pp. 31-40, 1994). 6±1 fertile eggs were used per group.
(§2) Fertile chicken eggs were cultured while maintaining the temperature of 37° C. and the relative humidity of 55%. On the third day of culture, a first small hole was made in the air sac part with a hypodermic needle (Green Cross Medical Corporation, Korea), and a second hole was made in the plat part of the fertile eggs to make a window.
(§3) The CAM was separated from the eggshell by expelling the air through the first hole in the air sac, and then the part was cut with a grinding wheel (Multipro 395JA, Dremel, Mexico) to make a window.
(§4) A Whatman filter disc #1 (Whatman, USA) was treated with 3 mg/ml of cortisone acetate and dried. The filter disc was treated with 10 μl of VEGF, TNF-α or IL-8 (20 ng/CAM).
(§5) Through the pre-made window, the filter disc was put on blood vessel, and then treated with various concentrations of MA, MMA or SMA which was dissolved in DMSO and diluted with PBS.
Three days after treatment, the CAM part with the filter disc was separated and washed with phosphate buffer solution. The photographs were taken by using a stereomicroscope (Leica, Wetzlar, Germany) and Image-Pro Plus software (Media Cybernetics; Silver Spring, Md., USA) to determine the number of bleed vessel branches and to analyze the data.
All data were represented as mean±standard error of mean, and the statistical analysis was done as one-way ANOVA by using GraphPad Prism 4 Software (San Diego, Calif., USA). Multiple comparisons between the differences of each group were made by using the NK (Newman-Keuls) method. When p-value was less than 0.05, the data were regarded as statistically significant.

[3] = test system: chorioallantoic membrane (CAM) neovascular formation induced by IL-8; test: CAM analysis of suppressive effect on angiogenesis, neovascular formation induced by IL-8; format: in vivo, chicken; conditions: IL-8 20 ng/CAM; various concentrations of compound; three days after treatment
Procedure: as §1, §2, §3, §4, §5
(§6) Three days after treatment, the CAM part with the filter disc was separated and washed with phosphate buffer solution. […]

[4] = test system: chorioallantoic membrane (CAM) neovascular formation induced by TNF-α; test: CAM analysis of suppressive effect on angiogenesis, neovascular formation induced by TNF-α; format: in vivo, chicken; conditions: TNF-α 20 ng/CAM; various concentrations of compound; three days after treatment
Procedure: as §1, §2, §3, §4, §5, §6

Row | Compound | dose dependence of suppression of metastasis (infiltration) of fibrosarcoma cells induced by 5% FBS [1] | suppressive effect on metastasis (infiltration) of fibrosarcoma cells induced by 5% FBS ([1]; compound 1 μM) | suppressive effect on metastasis (infiltration) of fibrosarcoma cells induced by 5% FBS ([1]; compound 5 μM) | dose dependence of suppression of neovascular formation caused by VEGF ([2]; various concentrations) | suppression of neovascular formation caused by VEGF (number of blood vessel branches) [2] | suppression of neovascular formation caused by IL-8 (number of blood vessel branches) [3] | suppression of neovascular formation caused by TNF-α (number of blood vessel branches) [4]
1 | C[C@@H]1CCC/C=C/C=C/[C@H](O)C[C@@H](O)C/C=C\C=C\[C@@H](OC(=O)CCC(=O)O)C/C=C/C=C\C(=O)O1 [SMA, 7-O-succinyl macrolactin A] | in a dose-dependent way | significant suppressive effect | superior suppressive effect on the metastasis comparable to that of batimastat | suppressed neovascular formation in a dose-dependent way | strongly suppressed | strongly suppressed | strongly suppressed
2 | C[C@@H]1CCC/C=C/C=C/[C@H](O)C[C@@H](O)C/C=C\C=C\[C@@H](OC(=O)CC(=O)O)C/C=C/C=C\C(=O)O1 [MMA, 7-O-malonyl macrolactin A] |  |  |  |  | strongly suppressed |  | 
3 | CC1CCC/C=C/C=C/[C@H](O)C[C@@H](O)C/C=C\C=C\[C@@H](O)C/C=C/C=C\C(=O)O1 (stereo partly drawn) [MA, macrolactin A] | in a dose-dependent way |  |  |  | strongly suppressed | strongly suppressed | strongly suppressed

Reference: patent US8940788B2, “Anti-angiogenic composition containing macrolactin A and a derivative thereof as active ingredients” (Daewoo Pharmaceutical Ind. Co., Ltd., priority 2010, dated 2015)
